# Measurements taken from PMC7915026, “Sulfaguanidine Hybrid with Some New Pyridine-2-One Derivatives: Design, Synthesis, and Antimicrobial Activity against Multidrug-Resistant Bacteria as Dual DNA Gyrase and DHFR Inhibitors” (Antibiotics, 2021).
# Read-outs that look alike come from different tables or passages of the source.
# Tests used:
# Assay type in all cases: cell-based
# [1] = system: E. coli ATCC BAA-196; test: Inhibition zone against multidrug-resistant bacteria; also: test concentration or dose not given here; settings: MDRB E. coli ATCC BAA-196
# Excerpt: (§1) Norfloxacin was used as a positive control for the multidrug resistance study.
# (§2) The antimicrobial activity performed at the bacteriology laboratory, Botany and Microbiology Department, Faculty of Science, Al-Azhar University, Cairo, Egypt. The inhibition zone (IZ) of the tested derivatives expressed as the diameter (mm) according to the agar plate diffusion method.
# [2] = system: P. aeruginosa ATCC BAA-2111; test: as above; settings: MDRB P. aeruginosa ATCC BAA-2111
# Excerpt: as §1, §2
# [3] = system: S. aureus ATCC 33591; test: as above; settings: MDRB S. aureus ATCC 33591
# Excerpt: as §1, §2
# [4] = system: S. aureus ATCC 43300; test: as above; settings: MDRB S. aureus ATCC 43300
# Excerpt: as §1, §2
# [5] = system: E. coli ATCC BAA-196; test: MIC and MBC against multidrug-resistant strains; settings: E. coli ATCC BAA-196
# Excerpt: as §1
# (§3) The experiment was repeating for three-times.
# [6] = system: P. aeruginosa ATCC BAA-2111; test: MIC and MBC against multidrug-resistant strains; settings: P. aeruginosa ATCC BAA-2111
# Excerpt: as §1, §3
# [7] = system: S. aureus ATCC 33591; test: MIC and MBC against multidrug-resistant strains; settings: Staphylococcus aureus, ATCC33591, S. aureus ATCC 33591
# Excerpt: as §1, §3
# [8] = system: S. aureus ATCC 43300; test: MIC and MBC against multidrug-resistant strains; settings: Staphylococcus aureus, ATCC43300, S. aureus ATCC 43300
# Excerpt: as §1, §3
# [9] = system: MDRB strains; test: MIC and MBC, ranges over the MDRB panel; settings: four MDRB strains
# Excerpt: as §1, §3
# For Mean Diameter of Inhibition Zone in this document: test concentration or dose not given here.
structure (smiles),measurement,setting,value
"CCn1cc(C(=O)O)c(=O)c2cc(F)c(N3CCNCC3)cc21 [Norfloxacin, reference compound]",Mean Diameter of Inhibition Zone,[1],27 ± 0.98 mm
same,Mean Diameter of Inhibition Zone,[2],24 ± 0.47 mm
same,Mean Diameter of Inhibition Zone,[3],26 ± 0.5 mm
same,Mean Diameter of Inhibition Zone,[4],25 ± 0.5 mm
same,MBC,[5]; listed as Nor.,8.32 ± 0.47 µM
same,MIC,[5]; listed as Nor.,4.91 ± 0.69 µM
same,MBC,"[5]; Escherichia coli, ATCCBAA196, read-out: MBC",8.32 µM
same,MIC,"[5]; Escherichia coli, ATCCBAA196, read-out: MIC",4.91 µM
same,MBC,[6]; listed as Nor.,16.65 ± 0.19 µM
same,MIC,[6]; listed as Nor.,9.80 ± 0.41 µM
same,MBC,"[6]; Pseudomonas aeruginosa, ATCCBAA2111, read-out: MBC",16.6 µM
same,MIC,"[6]; Pseudomonas aeruginosa, ATCCBAA2111, read-out: MIC",9.8 µM
same,MBC,[7]; read-out: MBC,4.38 ± 0.49 µM
same,MIC,[7]; read-out: MIC,2.44 ± 0.45 µM
same,MBC,[8]; read-out: MBC,7.82 ± 0.32 µM
same,MIC,[8]; read-out: MIC,3.91 ± 0.21 µM
same,MBC range,[9],4.38 to 16.65 µM
same,MIC range,[9],2.44 to 9.80 µM
